Test results reported in US12187752B2, “Solid forms and combination compositions comprising a beta-lactamase inhibitor and uses thereof” (priority 2017, dated 2025).
Where two headings read alike, the source gives them in different places. Blank lines part the entries; values can stand above or below the molecule they belong to.

Tests used:
[1] = In vitro human serum protein binding; type: in vitro ADME; details: human
Text: (§1) The results from in vitro and in vivo nonclinical PK/PD studies, the human PK data collected in the Phase 1 Study, and human plasma binding data were used to determine human therapeutic doses required for PK/PD target attainment.

human serum protein = assay: In vitro human serum protein binding; type: in vitro ADME
Text: as §1

[2] = Human pharmacokinetic and PK/PD target attainment estimates; type: in vivo
Text: as §1

[3] = Polymorph and hydrate screen: physical stability of solid forms (AAC, drying); type: physicochemical; details: 40° C. and 75% RH for 2 days
Method: The solids obtained from the various crystallization experiments were analyzed by High Throughput XRPD (HT-XRPD). If relevant, the mother liquors were allowed to evaporate completely, and the remaining solids were analyzed by HT-XRPD. Subsequently, all solids were exposed to accelerated aging conditions for 48 hours at 40° C. and 75% RH (AAC).
From the polymorph screen, four novel diffractograms were identified in addition to the two known forms of Compound 1-dihydrochloride, Form 1 and Form 2. Form 1 was the most abundant solid form found in this polymorph screen. The novel diffractograms were designated Forms 3, 4, 5 and 6. All these forms were found with low frequency and were poorly crystalline. […] The HT-XRPD patterns of the new Forms 3, 4, 5 and 6 are shown in FIG. 12, FIG. 13, FIG. 14, and FIG. 15, respectively.
After completion of the equilibration time, the remaining solids were analyzed by HT-XRPD dry under ambient conditions and dried under vacuum. The mother liquors were analyzed by Karl Fisher titration for water content determination. […] The solutions from these experiments were evaporated under vacuum (200 mBar) and the obtained dried solids analyzed by HT-XRPD. All the solids were then exposed to 40° C. and 75% RH for two days.

[4] = Stability of aqueous solutions of combination formulation at pH 5.0; type: physicochemical; details: pH 5.0 at 25° C., 24 hours
[5] = Physical stability of Compound 1-dihydrochloride at four temperature/RH conditions; type: physicochemical; details: four temperature/RH conditions, 4 weeks
Method: A physical stability study of Compound 1-dihydrochloride (mixture of Form 1 and Form 2) was conducted. A solid sample of Compound 1-dihydrochloride was incubated under four relative humidity and temperature conditions: 5° C./ambient RH, 25° C./60% RH, 30° C./65% RH and 40° C./75% RH. At regular intervals, the compound was analyzed by HR-XRPD and TGMS. […] The water content is in line with the monohydrate nature of Compound 1-dihydrochloride Form 1. The TGMS analyses recorded for the 2 weeks and 1-month incubation is also along the 3.8% of water (1 molecule of water per molecule of API).

[6] = Dynamic vapor sorption analysis; type: physicochemical; details: 25° C.
Method: Differences in hygroscopicity (moisture uptake) of the various forms of a solid material provided a measure of their relative stability at increasing relative humidity. Moisture sorption isotherms of small samples were obtained using a DVS-1 system from Surface Measurement Systems (London, UK); this instrument is suitable for use with as little as a few milligrams of sample, with an accuracy of 0.1 μg. The following humidity profile was applied: The relative humidity was cycled from 45% to 95% (sorption), back to 0% (desorption) and to 45%, at a constant temperature of 25° C. […] Weight equilibration per step was set with a minimum holding time of 1 hour. At the end of the DVS experiments, the recovered solid material was measured by HT-XRPD. Compound 1-dihydrochloride monohydrate was analyzed by dynamic vapor sorption (FIG. 6). The material was subjected to an isothermal desorption/sorption profile starting at 45%-95%-0%-45% relative humidity levels (step 5% at low relative humidity (RH)) at 25° C. The temperature was maintained constant at approximately 25° C. for the duration of the experiment. […] It can be seen that the mass uptake is rather small and that at high humidity level Compound 1-dihydrochloride remained as Form 1. This is confirmed by the mass stability and the VH-XRPD experiment conducted (see FIG. 7). […]

[7] = Aqueous solubility as a function of pH (phosphate buffers, HPLC-UV); type: physicochemical; details: aqueous buffer, thermodynamic from solid; for solubility at 4 h: read-out: Conc. (mg/ml) 4 hours; for solubility thermodynamic at 24 h: read-out: Conc. (mg/ml) 24 hours
Method: A known amount of Compound 1 was weighed directly into 5 ml vials and 1 ml of each phosphate buffer was added; the solutions obtained were kept at controlled temperature (25° C.) and magnetically stirred up to 24 hours. Aliquots of obtained suspensions or solutions were centrifuged (14000 rpm 10 minutes) and withdrawn at two predefined time points (4 hours and 24 hours) appropriately diluted and analyzed by HPLC-UV using the analytical method parameters summarized in the Table 9.

DSC analysis of Form 1 = type: physicochemical; details: DSC trace
Method: Melting properties were obtained from DSC thermograms, recorded with a heat flux DSC822e instrument (Mettler-Toledo GmbH, Switzerland). The DSC822e was calibrated for temperature and enthalpy with a small piece of indium (melting point at 156.6 C; ΔHf=28.45 J·g−1). Samples were sealed in standard 40 μl aluminum pans, pin-holed and heated in the DSC from 25° C. to 300° C., at a heating rate of 10° C. min-1. Dry N2 gas, at a flow rate of 50 ml min−1 was used to purge the DSC equipment during measurement.
This event corresponds to the onset of dehydration of the monohydrate. This dehydration process is followed by the decomposition of the compound at about 290° C. signaled by a large endothermic event. It is concluded from this experiment that Form 1 is stable to elevated temperature, up to approximately 50° C.

[8] = Variable humidity XRPD analysis; type: physicochemical; details: VH-XRPD, sorption; dihydrochloride
Method: To confirm the hypothesis of a solid form change between 40% and 0% relative humidity levels a variable humidity XRPD (VH-XRPD) analysis was performed. The sample was subjected to a humidity profile of 45-75-20-15-10-30-35-45% relative humidity levels at 30° C. At each step, two diffractograms were recorded. The first diffractogram was recorded when the target humidity was reached and the second after the sample had equilibrated for 1 hour at each humidity level. […] The most intense peaks of Form 1 (dihydrochloride monohydrate) are in the range between 9.5 and 24.5° 2θ.
The measured RH level and the kind of ongoing RH variation step (sorption or desorption) is found on the right hand side. […] Upon desorption, the material was converted between 20% and 15% relative humidity to Form 2, the anhydrous form. Upon sorption, Form 2 converted back to Form 1 between 30% and 35% relative humidity.

fraction unbound [1]: 0.63
free fraction (human serum protein): 63%
Total AUC0-24 ([2]; Dose Level 250 (q8 hr)): 123 µg·h/mL
fAUC0-24 ([2]; Dose Level 250 (q8 hr)): 77 µg·h/mL
Total AUC0-24 ([2]; Dose Level 500 (q8 hr)): 248 µg·h/mL
fAUC0-24 ([2]; Dose Level 500 (q8 hr)): 156 µg·h/mL
Physical stability upon exposure to AAC [3]: Stable
% present, Compound 1 [4]: 100%
SMILES: NCCN[C@H]1CC[C@H](CC(=O)N[C@H]2Cc3cccc(C(=O)O)c3OB2O)CC1 [Compound 1, (R)-3-(2-(trans-4-(2-aminoethylamino)cyclohexyl)acetamido)-2-hydroxy-3,4-dihydro-2H-benzo[e][1,2]oxaborinine-8-carboxylic acid]

Physical stability and hygroscopicity under the tested conditions [5]: physically stable and non-hygroscopic
Mass uptake on exposure to increasing relative humidity ([6]; DVS sorption 45% RH to 95%): rather small
Mass loss on desorption ([6]; DVS, exposure to 10, 5, and 0% RH, transformation to Form 2): approximately 4%
solubility at 4 h ([7]; Phosphate Buffer pH 4, pH (4 h) 3.9, 25° C.): > 143 mg/mL
solubility thermodynamic at 24 h ([7]; Phosphate Buffer pH 4, pH (24 h) 3.9, 25° C.): 133 mg/mL
solubility at 4 h ([7]; Phosphate Buffer pH 5, pH (4 h) 4.9, 25° C.): > 135 mg/mL
solubility thermodynamic at 24 h ([7]; Phosphate Buffer pH 5, pH (24 h) 4.9, 25° C.): 107 mg/mL
solubility at 4 h ([7]; Phosphate Buffer pH 6, pH (4 h) 6.2, 25° C.): > 135 mg/mL
solubility thermodynamic at 24 h ([7]; Phosphate Buffer pH 6, pH (24 h) 6.2, 25° C.): 102 mg/mL
solubility at 4 h ([7]; Phosphate Buffer pH 7, pH (4 h) 7.1, 25° C.): > 133 mg/mL
solubility thermodynamic at 24 h ([7]; Phosphate Buffer pH 7, pH (24 h) 7.0, 25° C.): 87.8 mg/mL
solubility at 4 h ([7]; Phosphate Buffer pH 8, pH (4 h) 8.1, 25° C.): > 127 mg/mL
solubility thermodynamic at 24 h ([7]; Phosphate Buffer pH 8, pH (24 h) 8.1, 25° C.): 68.3 mg/mL
solubility at 4 h ([7]; Phosphate Buffer pH 9, pH (4 h) 8.7, 25° C.): > 109 mg/mL
solubility thermodynamic at 24 h ([7]; Phosphate Buffer pH 9, pH (24 h) 8.9, 25° C.): 61.4 mg/mL
Temperature up to which the form is stable (onset of dehydration) (DSC analysis of Form 1): approximately 50 °C
SMILES: Cl.Cl.NCCN[C@H]1CC[C@H](CC(=O)N[C@H]2Cc3cccc(C(=O)O)c3OB2O)CC1 [Form 1, (R)-3-(2-(trans-4-(2-aminoethylamino)cyclohexyl)acetamido)-2-hydroxy-3,4-dihydro-2H-benzo[e][1,2]oxaborinine-8-carboxylic acid dihydrochloride]

Relative humidity at which Form 2 converts to Form 1 [8]: 25-35 % RH
SMILES: Cl.Cl.NCCN[C@H]1CC[C@H](CC(=O)N[C@H]2Cc3cccc(C(=O)O)c3OB2O)CC1 [Form 2, (R)-3-(2-(trans-4-(2-aminoethylamino)cyclohexyl)acetamido)-2-hydroxy-3,4-dihydro-2H-benzo[e][1,2]oxaborinine-8-carboxylic acid dihydrochloride]
